Experimental data taken from paper PMC2248166, “Quantitative peptide binding motifs for 19 human and mouse MHC class I molecules derived using positional scanning combinatorial peptide libraries” (Immunome Research, 2008).
Where a SMILES comes first, the peptide text is derived from it.

Legend:
Test in all cases: biochemical
Assay type in all cases: binding
HLA A*3001 = HLA A*3001 (Homo sapiens, UniProt P04439, D140H/D185E/E176W/F33S/G80R/H175R/K168Q/R138E/R41S)
HLA B*1501 = HLA B*1501 (Homo sapiens, UniProt P01889, A329T/A93T/A95T/C349S/D201E/D98Y/E187L/E204Q/E69M/E70A/K202T/N87E/Q94N/R155S/R180W/S121R/S35A/S48A/V306I/V36M/Y140S/Y91S)
HLA B*1503 = HLA B*1503 (Homo sapiens, UniProt P01889, A329T/A93T/A95T/C349S/D201E/D98Y/E187L/E204Q/K202T/N87E/Q94N/R155S/R180L/S121R/S35A/V306I/V36M/Y140S/Y91S)

Sequence of HLA A*3001 (P04439 25-365 limits assumed, stated change not applied): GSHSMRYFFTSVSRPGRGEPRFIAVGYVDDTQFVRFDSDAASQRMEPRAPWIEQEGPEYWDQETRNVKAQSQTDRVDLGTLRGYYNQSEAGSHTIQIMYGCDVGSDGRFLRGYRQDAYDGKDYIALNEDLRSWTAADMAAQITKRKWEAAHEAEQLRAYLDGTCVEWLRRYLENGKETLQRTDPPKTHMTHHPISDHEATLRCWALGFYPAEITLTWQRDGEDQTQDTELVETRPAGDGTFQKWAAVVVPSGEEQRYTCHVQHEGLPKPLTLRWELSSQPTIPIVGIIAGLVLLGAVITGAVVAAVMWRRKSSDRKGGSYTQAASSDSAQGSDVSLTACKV

| SMILES | IC50 (HLA A*3001) | IC50 (HLA B*1501) | IC50 (HLA B*1503) |
| --- | --- | --- | --- |
| CC[C@H](C)[C@H](NC(=O)[C@H](C)NC(=O)[C@H](Cc1ccc(O)cc1)NC(=O)[C@H](CCCCN)NC(=O)[C@H](CCCCN)NC(=O)[C@H](CCCCN)NC(=O)[C@@H](NC(=O)[C@@H](N)CCCCN)C(C)C)C(=O)NCC(=O)O [3102.0280] (H-KVKKKYAIG-OH) | 1.6 nM | – | – |
| CC(C)C[C@H](NC(=O)[C@H](CCCNC(=N)N)NC(=O)[C@H](Cc1ccc(O)cc1)NC(=O)[C@H](CCC(=O)O)NC(=O)[C@H](CCC(N)=O)NC(=O)[C@H](Cc1ccccc1)NC(=O)[C@@H](NC(=O)[C@@H](N)Cc1c[nH]cn1)C(C)C)C(=O)N[C@@H](CCCCN)C(=O)O [3102.0284] (H-HVFQEYRLK-OH) | 27 nM | – | – |
| CC[C@H](C)[C@H](NC(=O)[C@H](CCCCN)NC(=O)[C@@H](NC(=O)[C@@H](N)CCCCN)[C@@H](C)O)C(=O)N[C@@H](CC(=O)O)C(=O)N[C@H](C(=O)N[C@H](C(=O)N[C@@H](Cc1ccccc1)C(=O)N[C@@H](C)C(=O)O)[C@@H](C)CC)[C@@H](C)CC [3102.0285] (H-KTKIDIIFA-OH) | 10 nM | – | – |
| CC(C)C[C@H](NC(=O)[C@H](C)NC(=O)[C@H](CCC(=O)O)NC(=O)[C@H](CCCNC(=N)N)NC(=O)[C@@H](NC(=O)[C@@H](N)CCCCN)C(C)C)C(=O)N[C@@H](CC(=O)O)C(=O)NCC(=O)N[C@H](C(=O)O)C(C)C [3102.0286] (H-KVREALDGV-OH) | 0.11 nM | – | – |
| CSCC[C@H](NC(=O)[C@H](CO)NC(=O)[C@H](C)NC(=O)CNC(=O)[C@H](CCCCN)NC(=O)[C@H](C)NC(=O)[C@H](C)N)C(=O)N[C@H](C(=O)N[C@@H](CC(C)C)C(=O)O)[C@@H](C)O [3102.0287] (H-AAKGASMTL-OH) | 1 nM | – | – |
| CC[C@H](C)[C@H](NC(=O)[C@H](CC(N)=O)NC(=O)[C@H](CCCNC(=N)N)NC(=O)[C@@H](NC(=O)[C@@H](NC(=O)[C@H](CC(N)=O)NC(=O)[C@H](CCCNC(=N)N)NC(=O)[C@@H](NC(=O)[C@@H](N)CCCCN)[C@@H](C)O)C(C)C)[C@@H](C)CC)C(=O)O [3102.0486] (H-KTRNVIRNI-OH) | 0.072 nM | – | – |
| CC[C@H](C)[C@H](NC(=O)CNC(=O)[C@@H]1CCCN1C(=O)[C@@H](NC(=O)[C@H](CCCNC(=N)N)NC(=O)[C@H](CCC(N)=O)NC(=O)[C@H](CCCCN)NC(=O)[C@H](CC(C)C)NC(=O)[C@@H](N)CCCNC(=N)N)[C@@H](C)O)C(=O)O [3102.0640] (H-RLKQRTPGI-OH) | – | 17 nM | – |
| CSCC[C@H](NC(=O)[C@H](CC(C)C)NC(=O)[C@H](Cc1ccc(O)cc1)NC(=O)[C@H](CCCCN)NC(=O)[C@H](CCSC)NC(=O)[C@@H](N)CO)C(=O)N[C@@H](CC(C)C)C(=O)N[C@@H](CC(C)C)C(=O)N[C@@H](Cc1ccccc1)C(=O)O [3102.0789] (H-SMKYLMLLF-OH) | – | 3.8 nM | – |
| CC(C)C[C@H](N)C(=O)NCC(=O)N[C@@H](Cc1ccccc1)C(=O)N[C@@H](CC(=O)O)C(=O)N[C@H](C(=O)N[C@H](C(=O)N[C@@H](C)C(=O)N[C@@H](Cc1ccc(O)cc1)C(=O)N[C@@H](Cc1ccccc1)C(=O)O)C(C)C)C(C)C [3102.0790] (H-LGFDVVAYF-OH) | – | 67 nM | – |
| CC[C@H](C)[C@H](NC(=O)CN)C(=O)N[C@@H](CC(N)=O)C(=O)N[C@@H](CCCCN)C(=O)N[C@@H](CCCNC(=N)N)C(=O)N[C@@H](CO)C(=O)N[C@H](C(=O)N1CCC[C@H]1C(=O)N[C@@H](Cc1ccccc1)C(=O)O)[C@@H](C)O [3102.0792] (H-GINKRSTPF-OH) | – | 0.72 nM | – |
| CC[C@H](C)[C@H](NC(=O)[C@H](CO)NC(=O)[C@H](CO)NC(=O)[C@H](CCCCN)NC(=O)[C@@H](NC(=O)[C@@H](N)CC(C)C)C(C)C)C(=O)N[C@@H](CC(C)C)C(=O)N[C@H](C(=O)N[C@@H](CC(C)C)C(=O)O)[C@@H](C)O [3102.0793] (H-LVKSSILTL-OH) | – | 3.1 nM | – |
| CSCC[C@H](NC(=O)[C@@H](N)CCCNC(=N)N)C(=O)N[C@@H](CC(N)=O)C(=O)N[C@H](C(=O)N[C@@H](Cc1ccccc1)C(=O)N[C@@H](CC(N)=O)C(=O)NCC(=O)N[C@@H](Cc1c[nH]cn1)C(=O)N[C@@H](CC(C)C)C(=O)O)C(C)C [3102.0797] (H-RMNVFNGHL-OH) | – | 28 nM | – |
| CC(C)C[C@H](N)C(=O)N[C@@H](C)C(=O)N[C@@H](CC(N)=O)C(=O)N[C@H](C(=O)N[C@@H](CC(N)=O)C(=O)N[C@@H](Cc1ccccc1)C(=O)N[C@@H](Cc1ccccc1)C(=O)N[C@H](C(=O)N[C@@H](Cc1ccccc1)C(=O)O)C(C)C)[C@@H](C)O [3102.0800] (H-LANTNFFVF-OH) | – | 17 nM | – |
| CC[C@H](C)[C@H](NC(=O)[C@@H](NC(=O)[C@@H](N)CO)[C@@H](C)CC)C(=O)N[C@H](C(=O)N[C@@H](CC(C)C)C(=O)N[C@@H](Cc1ccccc1)C(=O)N[C@@H](CCC(N)=O)C(=O)N[C@@H](CCCNC(=N)N)C(=O)N[C@@H](Cc1ccccc1)C(=O)O)C(C)C [3102.0801] (H-SIIVLFQRF-OH) | – | 1.1 nM | – |
| CC[C@H](C)[C@H](NC(=O)[C@H](CC(=O)O)NC(=O)[C@H](CC(C)C)NC(=O)[C@H](Cc1ccccc1)NC(=O)[C@@H](N)CC(C)C)C(=O)N[C@@H](CCC(=O)O)C(=O)N[C@@H](CS)C(=O)N[C@@H](Cc1c[nH]cn1)C(=O)N[C@@H](Cc1ccccc1)C(=O)O [3102.0932] (H-LFLDIECHF-OH) | 19 nM | – | – |
| CC[C@H](C)[C@H](NC(=O)[C@H](Cc1c[nH]cn1)NC(=O)[C@H](Cc1ccc(O)cc1)NC(=O)[C@H](C)NC(=O)[C@H](CCCCN)NC(=O)[C@@H](N)CCCNC(=N)N)C(=O)N[C@H](C(=O)N[C@@H](Cc1ccccc1)C(=O)N[C@@H](Cc1ccccc1)C(=O)O)[C@@H](C)CC [3102.1054] (H-RKAYHIIFF-OH) | 5.4 nM | – | 0.037 nM |
| CC(C)C[C@H](NC(=O)[C@H](CO)NC(=O)[C@H](CCC(N)=O)NC(=O)[C@@H](N)Cc1ccc(O)cc1)C(=O)N[C@@H](CO)C(=O)N1CCC[C@H]1C(=O)N1CCC[C@H]1C(=O)N1CCC[C@H]1C(=O)N[C@@H](Cc1ccccc1)C(=O)O [3102.1242] (H-YQSLSPPPF-OH) | 0.5 nM | – | 0.061 nM |
| CC(C)C[C@H](NC(=O)[C@H](CO)NC(=O)[C@H](CCCCN)NC(=O)[C@H](CO)NC(=O)[C@H](C)N)C(=O)N[C@@H](CCCCN)C(=O)N1CCC[C@H]1C(=O)N[C@H](C(=O)N[C@@H](CCCCN)C(=O)O)[C@@H](C)O [3102.1346] (H-ASKSLKPTK-OH) | 15 nM | – | – |
| CC[C@H](C)[C@H](NC(=O)[C@H](CCCCN)NC(=O)[C@H](C)NC(=O)CN)C(=O)NCC(=O)N[C@@H](CS)C(=O)N[C@H](C(=O)N[C@@H](CC(N)=O)C(=O)N[C@H](C(=O)O)C(C)C)[C@@H](C)CC [3102.1347] (H-GAKIGCINV-OH) | 9.1 nM | – | – |
| CC[C@H](C)[C@H](NC(=O)[C@H](CCCCN)NC(=O)[C@H](CO)NC(=O)[C@H](CCCCN)NC(=O)[C@@H](NC(=O)[C@@H](N)CCCNC(=N)N)[C@@H](C)O)C(=O)N[C@@H](CC(C)C)C(=O)N[C@@H](Cc1ccccc1)C(=O)NCC(=O)O [3102.1348] (H-RTKSKILFG-OH) | 10 nM | – | – |
| C[C@H](NC(=O)[C@H](C)NC(=O)[C@@H]1CCCN1C(=O)[C@H](CCCCN)NC(=O)[C@H](CO)NC(=O)[C@H](CCCNC(=N)N)NC(=O)[C@H](CO)NC(=O)[C@H](Cc1ccc(O)cc1)NC(=O)[C@@H](N)CCCCN)C(=O)O [3102.1349] (H-KYSRSKPAA-OH) | 5.7 nM | – | – |
| CC[C@H](C)[C@H](NC(=O)[C@H](Cc1ccc(O)cc1)NC(=O)[C@H](CCC(N)=O)NC(=O)[C@H](Cc1ccc(O)cc1)NC(=O)[C@H](CCSC)NC(=O)[C@H](C)NC(=O)[C@H](C)N)C(=O)N[C@@H](Cc1ccccc1)C(=O)N[C@@H](CC(C)C)C(=O)O [3102.1350] (H-AAMYQYIFL-OH) | 7.5 nM | – | – |
